The values below come from publication PMC8549013 (Neuropharmacology, 2021).

Structures are written as SMILES.

One assay relates to hDAT. Conditions: same technique, ref Steele and Eltit, 2019; cited from earlier work.
Another assay addresses wt hDAT (Homo sapiens, UniProt Q01959). Put plainly: MAT-Ca2+ assay: inhibition of DA-induced Ca2+ signals. In kind it is cell-based. As to conditions: DA 10 μM; for pIC50 ± SEM: ~35°C, Table 2.
A further assay has as its target wt dDAT (Drosophila melanogaster, UniProt Q7K4Y6). The description is as above. In kind it is cell-based. Conditions: DA 10 μM; for pIC50 ± SEM: bottom of fit constrained to zero for MDPV.
The target of assay [1] is A117S/D121G/P323V dDAT (triple dDAT mutant) (Drosophila melanogaster, UniProt Q7K4Y6, A117S/D121G/P323V). Described as above. The class given is cell-based.
Assay [2] has as its target A117S/D121G/P323V/F318C dDAT (quadruple dDAT mutant) (Drosophila melanogaster, UniProt Q7K4Y6, A117S/D121G/F318C/P323V). Described as above. In kind it is cell-based.
A further assay relates to NET. As to conditions: rat brain synaptosomes; ref Gannon et al., 2018; cited from earlier work.
A further assay deals with P323V dDAT mutant (Drosophila melanogaster, UniProt Q7K4Y6, P323V). Put plainly: MAT-Ca2+ assay: inhibition of DA-induced Ca2+ signals. The class given is cell-based.
The target of a further assay is A117S dDAT mutant (Drosophila melanogaster, UniProt Q7K4Y6, A117S). The description is as above. In kind it is cell-based.
For a further assay, the target named is F318C dDAT mutant (Drosophila melanogaster, UniProt Q7K4Y6, F318C). The assay is described as above. In kind it is cell-based.
In another assay the target is D121G dDAT mutant (Drosophila melanogaster, UniProt Q7K4Y6, D121G). Described as above. In kind it is cell-based.
The target in another assay is A117S/D121G dDAT mutant (Drosophila melanogaster, UniProt Q7K4Y6, A117S/D121G). The assay is described as above. In kind it is cell-based.
The test system of assay [3] is human dopamine transporter (hDAT). Conditions: ref Baumann et al., 2013; Cameron et al., 2013b; Steele and Eltit, 2019; cited from earlier work.
Where [4] appears, read: Table 2 dataset, with DA pre-pulse.
Where [5] appears, read: Table 1 dataset, without DA pre-pulse.

Turning to `NCCc1ccc(O)c(O)c1` [DA, dopamine], in the assay on hDAT, the “pEC50 of DA to produce Ca2+ signals” value is 5.89 ± 0.04.

As a reminder, the IC50 is the concentration that gives 50% inhibition. Read a high IC50 as weaker potency. On to `CC(C(=O)c1ccc2c(c1)OCO2)N1CCCC1` (stereo not drawn) [MDPPP, 3,4-methylenedioxy-α-pyrrolidinopropiophenone], for which the IC50 is 3420 nM against wt hDAT, above 30000 nM on wt dDAT, 16000 nM in assay [1] (setting [4]) and 13000 nM in assay [2] (setting [4]). For the same compound, the “pIC50 ± SEM” value on wt hDAT is reported as 5.47 ± 0.02 M; against wt dDAT it was “Inactive”; in assay [1] (setting [4]), 4.80 ± 0.02 M; in [2] (setting [4]) it was 4.89 ± 0.01 M. The “weaker inhibiting uptake at NET than at DAT” value (“weaker inhibiting uptake” below) with NET was ~ 5 fold.

As to `CCCC(C(=O)c1ccc2c(c1)OCO2)N1CCCC1` (stereo not drawn) [MDPV, 3,4-Methylenedioxypyrovalerone], the IC50 was 34 nM against wt hDAT; 27400 nM on wt dDAT; 9690 nM against P323V dDAT mutant (P323V dDAT); 8390 nM against A117S dDAT mutant (A117S dDAT); 8240 nM on F318C dDAT mutant (F318C dDAT); 4650 nM against D121G dDAT mutant. In addition, the half-inhibitory concentration (IC50) was 2210 nM at A117S/D121G dDAT mutant; 1180 nM in assay [1] (Table 1 dataset); 1180 nM in assay [1] (setting [5]); 1210 nM in assay [1] (Table 2 dataset); 1210 nM in assay [1] (setting [4]); 250 nM in [2] (Table 1 dataset). For the same compound, the IC50 in [2] (setting [5]) was 253 nM; in assay [2] (setting [4]), 251 nM. Further, the “pIC50 ± SEM” value against wt hDAT is 7.47 ± 0.01 M; against wt dDAT, 4.56 ± 0.02 M; against P323V dDAT mutant (P323V dDAT), 5.01 ± 0.03 M; against A117S dDAT mutant (A117S dDAT), 5.08 ± 0.04 M; against F318C dDAT mutant (F318C dDAT) it was 5.08 ± 0.02 M; against D121G dDAT mutant it was 5.33 ± 0.04 M. In addition, the “pIC50 ± SEM” value on A117S/D121G dDAT mutant was found to be 5.66 ± 0.04 M; in [1] (setting [5]) it was 5.93 ± 0.02 M; in assay [1] (setting [4]), 5.92 ± 0.02 M; in assay [2] (setting [5]), 6.60 ± 0.03 M; in assay [2] (setting [4]) it was 6.60 ± 0.04 M. The “improvement in potency vs wt dDAT” value at P323V dDAT mutant (P323V dDAT vs wt dDAT), at A117S dDAT mutant (A117S dDAT vs wt dDAT) and at F318C dDAT mutant (F318C dDAT vs wt dDAT) was ~ 3 fold in each case. Also, the “weaker inhibiting uptake” value in the assay with NET is on record as ~ 4 fold. Besides, the “more potent than cocaine in blocking DA uptake through DAT” value in assay [3] was ~ 50 fold.

Regarding `CCCC(C(=O)c1ccccc1)N1CCCC1` (stereo not drawn) [α-PVP, α-pyrrolidinovalerophenone], the IC50 against wt hDAT was 51 nM; against wt dDAT, 20700 nM; in assay [1] (Table 2 dataset), 1530 nM; in assay [1] (setting [4]), 1530 nM; in assay [2] (Table 2 dataset) it was 1090 nM; in assay [2] (setting [4]), 1090 nM. Moreover, the “pIC50 ± SEM” value against wt hDAT is given as 7.29 ± 0.01 M; against wt dDAT it was 4.68 ± 0.03 M; in assay [1] (setting [4]), 5.82 ± 0.03 M; in assay [2] (setting [4]), 5.96 ± 0.03 M. Also, the “weaker inhibiting uptake” value in the assay on NET is “equipotent”.
